Literature values, collected in patent US5834251A, “Methods of modifying carbohydrate moieties” (Alko Group Ltd., priority 1994, dated 1998).

Molecular target: α-2,6 Sialyltransferase, EC 2.4.99.1, from rat liver (Rattus norvegicus, UniProt P13721)
Details: read-out: Km for the sugar donor CMP-NeuAc; commercially available enzyme, such as that from rat liver

Chain of α-2,6 Sialyltransferase, EC 2.4.99.1, from rat liver (P13721 whole entry): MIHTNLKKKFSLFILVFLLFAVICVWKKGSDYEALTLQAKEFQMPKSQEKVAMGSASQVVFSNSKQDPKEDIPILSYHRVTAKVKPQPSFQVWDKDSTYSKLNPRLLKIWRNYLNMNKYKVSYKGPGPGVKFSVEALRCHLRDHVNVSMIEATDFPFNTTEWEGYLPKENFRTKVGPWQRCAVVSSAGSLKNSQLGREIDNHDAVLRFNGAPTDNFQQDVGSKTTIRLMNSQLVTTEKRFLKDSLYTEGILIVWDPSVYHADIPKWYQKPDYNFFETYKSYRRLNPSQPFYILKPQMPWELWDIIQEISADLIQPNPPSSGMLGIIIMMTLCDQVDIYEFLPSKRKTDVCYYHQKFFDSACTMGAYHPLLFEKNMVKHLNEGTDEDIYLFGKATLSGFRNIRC

Structure (SMILES): CC(=O)NC1C(O)CC(OP(=O)(O)OCC2OC(n3ccc(N)nc3=O)C(O)C2O)(C(=O)O)OC1C(O)C(O)CO (stereo not shown) [CMP-NeuAc, CMP-N-acetylneuraminic acid]
- Km: 85 µM
